Values quoted from earlier work in patent publication US9603811B2, “Pharmaceutical compositions of carotenoid chylomicrons” (HEALTH-EVER BIOTECH CO. LTD, priority 2013, dated 2017).
Like-named read-outs stand apart in the source and are kept apart here.

solubility in water: practically insoluble in water
solubility in water (listed as Solanorubin): insoluble in water
Compound: CC(C)=CCC/C(C)=C/C=C/C(C)=C/C=C/C(C)=C/C=C/C=C(C)/C=C/C=C(C)/C=C/C=C(\C)CCC=C(C)C [solanorubin]
